Earlier results, collected in patent US5162307A, “Polymer bound elastase inhibitors” (Board of Trustees of the University of Kentucky, priority 1992, dated 1992).

Assays:
rabbits = details: rabbit, in vivo
[1] = in vivo
guinea pigs = details: guinea pig, in vivo

In the case of “poly α, β-[N-(2-hydroxyethyl)-D,L-aspartamide] [PHEA]”, the “immune response (antigenicity)” value (rabbits) is listed as “no evidence of an immune response”, the “effect on the biosynthetic mechanism of the serum proteins or of blood cells” value [1] is listed as “no adverse effect” and the toxicity [1] is listed as “lack toxicity”. The organ weight ([1]; iv) was “do not induce any significant changes”, the total weight gain ([1]; iv) was “do not induce any significant changes” and the “immune response (antigenicity)” value (guinea pigs) was “no evidence of an immune response”.
